Results published in patent US9963467B2, “Boronic acid derivatives and therapeutic uses thereof” (Rempex Pharmaceuticals, Inc., priority 2014, dated 2018).

Assays:
[1] = molecular target: CTX-M-14 (Escherichia coli, UniProt Q9L5C7); test: Ki, nitrocefin cleavage by purified enzyme, CTX-M-14; format: biochemical; conditions: nitrocefin reporter substrate; read-out: Ki (CTX-M-14, NCF)
Method: (§1) Purified enzymes were mixed with various concentrations of inhibitors in reaction buffer and incubated for 10 min at room temperature. Nitrocefin was added and substrate cleavage profiles were recorded at 490 nm every 10 sec for 10 min.

[2] = system: KP1005 (CTX-M-14); test: Tigemonam potentiation (MPC@4), KP1005; format: cell-based; conditions: BLI with tigemonam at 4 μg/mL
[3] = system: KP1004 (KPC-2); test: Biapenem potentiation (MPC@1), KP1004; conditions: BLI with biapenem at 1 μg/mL
[4] = system: ec302 (TEM-10); test: Tigemonam potentiation (MPC@4), ec302; format: cell-based
[5] = system: ec308 (SHV-5); test: Tigemonam potentiation (MPC@4), ec308; format: cell-based
[6] = molecular target: KPC-2 (Klebsiella pneumoniae, UniProt Q9F663); test: Ki, nitrocefin cleavage by purified enzyme, KPC-2; format: biochemical; conditions: nitrocefin reporter substrate; read-out: Ki (KPC-2, NCF)
Method: as §1

[7] = system: ECL1002; test: Tigemonam potentiation (MPC@4), ECL1002; format: cell-based; conditions: BLI with tigemonam at 4 μg/mL
[8] = system: EC1010 (CMY-6); test: Tigemonam potentiation (MPC@4), EC1010; format: cell-based; conditions: BLI with tigemonam at 4 μg/mL
[9] = system: EC1010 (CMY-6); test: organism not typed; format: cell-based
[10] = molecular target: OXA-48 (Klebsiella pneumoniae, UniProt Q6XEC0); test: Ki, nitrocefin cleavage by purified enzyme, OXA-48; format: biochemical; conditions: nitrocefin reporter substrate; read-out: Ki (OXA-48, NCF)
Method: as §1

[11] = system: KP1009 (CTX-M-15); test: Tigemonam potentiation (MPC@4), KP1009; format: cell-based; conditions: BLI with tigemonam at 4 μg/mL
[12] = Monomer content of pH adjusted aqueous solutions (LC-UV); format: physicochemical; conditions: pH adjusted to 7.6 to 8, LC-UV; for % Monomer in 1 mg/mL salt solution: 1 mg/mL aqueous salt solution
Method: Boronic acid containing compounds are known to undergo oligomerization. The presence of oligomers can greatly complicate drug development, as they represent new chemical species whose content must be controlled and qualified by testing in toxoicology studies. The monomer content of compounds was evaluated by adjusting aqueous solutions to physiological pH at various concentrations. The monomer content of pH adjusted solutions was measured using LC-UV. Test compounds were weighed out into a 1.5 mL Eppendorf tube. A solution of water was prepared in 1.00 mg/mL, 10.0 mg/mL or 100 mg/mL concentrations of the compound based on active fraction. A volume 20 uL was subtracted to allow room for addition of acid or base to adjust pH. The solution pH was measured. The pH was then adjusted through addition of acid or base as necessary until the reading was in the 7.6 to 8 range. A final pH measurement was made after ensuring all the compound was in solution. The solution was injected onto LC-UV in 0.1 uL to 5 uL volume within less than half an hour after the time the sample was prepared. Elution was done using 0.1% TFA in water for mobile phase A and 0.085% TFA in methanol for mobile phase B on an Excel ACE 5 Super C18 2.1×100 mm column at 0.6 ml/min flow rate with 9 min gradient, 3.9 minute hold at 90% B and 18 minute run time. The absorption was measured at 220, 254 and 300 nm with a 4 nm bandwidth.

[13] = system: KP1086 (OXA-48); test: Biapenem potentiation (MPC@1), KP1086; conditions: BLI with biapenem at 1 μg/mL
[14] = system: ECL1002; test: Aztreonam potentiation (MPC@4), ECL1002; format: cell-based; conditions: BLI with aztreonam at 4 μg/mL
[15] = system: ec302 (TEM-10); test: Aztreonam potentiation (MPC@4), ec302; format: cell-based; conditions: BLI with aztreonam at 4 μg/mL
[16] = molecular target: SHV-12 (Klebsiella pneumoniae, UniProt P0AD64, E235K/G234S/L31Q); test: Ki, nitrocefin cleavage by purified enzyme, SHV-12; format: biochemical; conditions: nitrocefin reporter substrate; read-out: Ki (SHV-12, NCF)
Method: as §1

[17] = molecular target: P99 (Enterobacter cloacae, UniProt P05364); test: Ki, nitrocefin cleavage by purified enzyme, P99; format: biochemical; conditions: nitrocefin reporter substrate; read-out: Ki (P99, NCF)
Method: as §1

[18] = system: KP1010 (SHV-12); test: Tigemonam potentiation (MPC@4), KP1010; format: cell-based
[19] = molecular target: Pa AmpC (Pseudomonas aeruginosa, UniProt P24735); test: Ki, nitrocefin cleavage by purified enzyme, Pa AmpC; format: biochemical; conditions: nitrocefin reporter substrate; read-out: Ki (Pa AmpC, NCF)
Method: Ki values of inhibition of purified class A, C and D enzymes were determined spectrophotometrically using nitrocefin as reporter substrate. Purified enzymes were mixed with various concentrations of inhibitors in reaction buffer and incubated for 10 min at room temperature. Nitrocefin was added and substrate cleavage profiles were recorded at 490 nm every 10 sec for 10 min. These experiments confirmed that the described compounds are inhibitors with a broad-spectrum of activity towards various β-lactamases.

Chain of Pa AmpC (P24735 27-397): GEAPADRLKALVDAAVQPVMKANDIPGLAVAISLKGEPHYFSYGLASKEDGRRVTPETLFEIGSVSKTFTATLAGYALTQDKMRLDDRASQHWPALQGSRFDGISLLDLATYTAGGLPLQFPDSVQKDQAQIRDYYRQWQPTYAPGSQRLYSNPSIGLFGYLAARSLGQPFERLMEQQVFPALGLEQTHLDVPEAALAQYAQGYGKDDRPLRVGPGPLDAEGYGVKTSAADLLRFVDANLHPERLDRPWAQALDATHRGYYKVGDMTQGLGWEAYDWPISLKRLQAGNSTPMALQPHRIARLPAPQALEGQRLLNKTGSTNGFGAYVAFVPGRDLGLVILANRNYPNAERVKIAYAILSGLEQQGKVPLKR
Chain of CTX-M-14 (Q9L5C7 29-291): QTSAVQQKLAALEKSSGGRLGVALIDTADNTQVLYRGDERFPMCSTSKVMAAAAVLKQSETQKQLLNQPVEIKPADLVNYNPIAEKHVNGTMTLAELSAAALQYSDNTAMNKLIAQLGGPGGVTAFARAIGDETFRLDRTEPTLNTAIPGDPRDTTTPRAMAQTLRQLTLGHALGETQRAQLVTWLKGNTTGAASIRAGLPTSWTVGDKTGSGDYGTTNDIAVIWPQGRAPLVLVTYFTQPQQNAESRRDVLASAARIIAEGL
Chain of P99 (P05364 21-381): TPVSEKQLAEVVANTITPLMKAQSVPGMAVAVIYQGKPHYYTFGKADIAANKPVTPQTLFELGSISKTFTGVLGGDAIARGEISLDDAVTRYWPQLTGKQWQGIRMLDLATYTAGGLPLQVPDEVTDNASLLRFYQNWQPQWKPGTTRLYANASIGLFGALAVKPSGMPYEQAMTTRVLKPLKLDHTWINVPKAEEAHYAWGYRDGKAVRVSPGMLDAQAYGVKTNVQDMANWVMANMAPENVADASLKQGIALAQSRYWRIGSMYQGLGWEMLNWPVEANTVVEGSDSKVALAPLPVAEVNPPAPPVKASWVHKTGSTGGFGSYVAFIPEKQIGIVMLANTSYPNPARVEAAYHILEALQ
Chain of SHV-12 (P0AD64 22-286 L31Q/G234S/E235K): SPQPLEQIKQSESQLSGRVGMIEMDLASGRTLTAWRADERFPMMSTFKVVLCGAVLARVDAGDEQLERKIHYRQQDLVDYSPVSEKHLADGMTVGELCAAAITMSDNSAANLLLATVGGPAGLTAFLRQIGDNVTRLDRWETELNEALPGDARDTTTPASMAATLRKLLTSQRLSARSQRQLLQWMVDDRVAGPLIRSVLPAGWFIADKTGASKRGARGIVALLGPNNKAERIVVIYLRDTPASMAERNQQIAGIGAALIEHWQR
Chain of OXA-48 (Q6XEC0 23-265, looked up, species assumed): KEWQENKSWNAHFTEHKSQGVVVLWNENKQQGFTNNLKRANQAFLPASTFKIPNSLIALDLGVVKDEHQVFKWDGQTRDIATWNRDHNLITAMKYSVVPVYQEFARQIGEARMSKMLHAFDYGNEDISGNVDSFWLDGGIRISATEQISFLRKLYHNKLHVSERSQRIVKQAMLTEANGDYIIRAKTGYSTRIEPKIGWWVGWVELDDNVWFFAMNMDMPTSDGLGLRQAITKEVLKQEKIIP
Chain of KPC-2 (Q9F663 25-293, looked up, species assumed): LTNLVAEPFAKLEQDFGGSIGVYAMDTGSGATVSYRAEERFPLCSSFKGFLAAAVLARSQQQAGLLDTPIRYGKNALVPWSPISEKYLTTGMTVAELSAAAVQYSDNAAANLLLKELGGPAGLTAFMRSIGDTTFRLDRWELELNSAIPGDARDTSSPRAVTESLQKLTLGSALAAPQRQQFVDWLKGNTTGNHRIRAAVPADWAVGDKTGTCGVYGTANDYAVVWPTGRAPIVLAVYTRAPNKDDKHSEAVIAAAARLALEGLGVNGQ

Structure (SMILES)	Ki [1]	TIG MPC4 CTX-M-14 KP1005 [2]	BPM MPC1 KP1004 KPC-2 [3]	TIG MPC4 TEM-10 ec302 [4]	TIG MPC4 SHV-5 ec308 [5]	Ki [6]	TIG MPC4 ECL1002 [7]	TIG MPC4 CMY-6 EC1010 [8]	AZT MPC4 CMY-6 EC1010 [9]	Ki [10]	TIG MPC4 CTX-M-15 KP1009 [11]	% Monomer in 1 mg/mL salt solution [12]	BPM MPC1 OXA-48 KP1086 [13]	AZT MPC4 ECL1002 [14]	AZT MPC4 TEM-10 ec302 [15]	Ki [16]	Ki [17]	TIG MPC4 SHV-12 KP1010 [18]	Ki [19]	other results
NC(=O)CC(=O)N[C@H]1Cc2ccc(F)c(C(=O)O)c2OB1O [Compound 5, (R)-3-(3-amino-3-oxopropanamido)-7-fluoro-2-hydroxy-3,4-dihydro-2H-benzo[e][1,2]oxaborinine-8-carboxylic acid]	< 1 nM	Y (MIC of 1 μg/mL to 10 μg/mL)	X (MIC of less than 1 μg/mL)	Z (key: X: MIC of less than 1 ng/mL; Y: MIC of 1 μg/mL to 10 μg/mL; Z: MIC of greater than 10 μg/mL)	X (key: X: MIC of less than 1 μg/mL; Y: MIC of 1 μg/mL to 10 μg/mL; Z: MIC of greater than 10 μg/mL)	> 10 nM	X (MIC of less than 1 μg/mL)	X (MIC of less than 1 μg/mL)	Y (key: X: MIC of less than 1 ng/mL; Y: MIC of 1 μg/mL to 10 μg/mL; Z: MIC of greater than 10 μg/mL)	< 1 nM	X (MIC of less than 1 μg/mL)	98.5%	Y (MIC of 1 μg/mL to 10 μg/mL)	Y (MIC of 1 μg/mL to 10 μg/mL)	Y (MIC of 1 μg/mL to 10 μg/mL)	< 1 nM	> 10 nM	X (key: X: MIC of less than 1 μg/mL; Y: MIC of 1 μg/mL to 10 μg/mL; Z: MIC of greater than 10 μg/mL)	> 10 nM	
CNC(=O)CC(=O)N[C@H]1Cc2ccc(F)c(C(=O)O)c2OB1O [Compound 7, (R)-7-fluoro-2-hydroxy-3-(3-(methylamino)-3-oxopropanamido)-3,4-dihydro-2H-benzo[e][1,2]oxaborinine-8-carboxylic acid]	< 1 nM	Y (MIC of 1 μg/mL to 10 μg/mL)	X (MIC of less than 1 μg/mL)	Z (key: X: MIC of less than 1 ng/mL; Y: MIC of 1 μg/mL to 10 μg/mL; Z: MIC of greater than 10 μg/mL)	X (key: X: MIC of less than 1 μg/mL; Y: MIC of 1 μg/mL to 10 μg/mL; Z: MIC of greater than 10 μg/mL)	> 10 nM	X (MIC of less than 1 μg/mL)	X (MIC of less than 1 μg/mL)	Y (key: X: MIC of less than 1 ng/mL; Y: MIC of 1 μg/mL to 10 μg/mL; Z: MIC of greater than 10 μg/mL)	1 to 10 nM	X (MIC of less than 1 μg/mL)	97.1%	Y (MIC of 1 μg/mL to 10 μg/mL)	Y (MIC of 1 μg/mL to 10 μg/mL)	Y (MIC of 1 μg/mL to 10 μg/mL)	< 1 nM	> 10 nM	X (key: X: MIC of less than 1 μg/mL; Y: MIC of 1 μg/mL to 10 μg/mL; Z: MIC of greater than 10 μg/mL)	> 10 nM	
COc1ccc2c(c1C(=O)O)OB(O)[C@@H](NC(=O)CSC)C2 [Compound 12, (R)-2-hydroxy-7-methoxy-3-(2-(methylthio)acetamido)-3,4-dihydro-2H-benzo[e][1,2]oxaborinine-8-carboxylic acid]	< 1 nM	X (MIC of less than 1 μg/mL)	X (MIC of less than 1 μg/mL)	Y (key: X: MIC of less than 1 ng/mL; Y: MIC of 1 μg/mL to 10 μg/mL; Z: MIC of greater than 10 μg/mL)	X (key: X: MIC of less than 1 μg/mL; Y: MIC of 1 μg/mL to 10 μg/mL; Z: MIC of greater than 10 μg/mL)	> 10 nM	X (MIC of less than 1 μg/mL)	X (MIC of less than 1 μg/mL)		< 1 nM	X (MIC of less than 1 μg/mL)	98.2%	Y (MIC of 1 μg/mL to 10 μg/mL)		X (MIC of less than 1 ng/mL)	< 1 nM	> 10 nM	X (key: X: MIC of less than 1 μg/mL; Y: MIC of 1 μg/mL to 10 μg/mL; Z: MIC of greater than 10 μg/mL)	> 10 nM	% Monomer in 10 mg/mL salt solution ([12]; 10 mg/mL aqueous salt solution): 95.5%; % Monomer in 100 mg/mL salt solution ([12]; 100 mg/mL aqueous salt solution): 96.5%
